test system: MV-4-11 cells; experiment: Cell Viability Assay in MV-4-11 Cells; type: cell-based; conditions: Homo sapiens, MV4-11, 72 h
How it was run: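 Luminescent ATP read-out (CellTiter-Glo) after 72 h compound treatment of MV-4-11 leukaemia cells (7,000 per well, IMDM plus 10% FBS). Values expressed relative to DMSO control and derived by four-parameter non-linear regression.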

SMILES | IC50
Cc1n[nH]c(-c2ccc(C(=O)N(c3nccc4cccc(C)c34)[C@@H]3CCCNC3)c(F)c2)n1 [Example 324, (R)-2-fluoro-4-(3-methyl-1H-1,2,4-triazol-5-yl)-N-(8-methylisoquinolin-1-yl)-N-(piperidin-3-yl) benzamide] | 1500 nM
[2H]C([2H])([2H])c1nnc(-c2ccc(C(=O)N(c3nccc4scc(C)c34)[C@@H]3CCCNC3)c(F)c2)s1 [Example 780, 2-fluoro-N-(3-methylthieno[3,2-c]pyridin-4-yl)-N-[(3R)-3-piperidyl]-4-[5-(trideuteriomethyl)-1,3,4-thiadiazol-2-yl] benzamide] | 120 nM

same assay, conditions: Homo sapiens, MV4-11, 72 h, MV-4-11 cells, 72 h, Cell-Titer Glo; read-out: IC50

IC50 | SMILES
160 nM | Cc1csc2ccnc(N(C(=O)c3ccc(-c4nnc(CCC#N)s4)cc3F)[C@@H]3CCCNC3)c12 [Example 883, 4-[5-(2-cyanoethyl)-1,3,4-thiadiazol-2-yl]-2-fluoro-N-(3-methylthieno[3,2-c]pyridin-4-yl)-N-[(3R)-3-piperidyl]benzamide]
150 nM | C#Cc1ccc2c(N(C(=O)c3ccc(-n4nnc5cccnc54)cc3F)[C@@H]3CCCNC3)nccc2c1 [Example 396, (R)-4-(3H-[1,2,3]triazolo[4,5-b]pyridin-3-yl)-N-(6-ethynylisoquinolin-1-yl)-2-fluoro-N-(piperidin-3-yl)benzamide]
270 nM | Cn1cc(-c2ccc(C(=O)N(c3nccc4sc(-c5ccc(CO)s5)cc34)[C@@H]3CCCNC3)c(F)c2)nn1 [Example 481, (R)-2-fluoro-N-(2-(5-(hydroxymethyl)thiophen-2-yl)thieno[3,2-c]pyridin-4-yl)-4-(1-methyl-1H-1,2,3-triazol-4-yl)-N-(piperidin-3-yl)benzamide]
150 nM | Cc1csc2ccnc(N(C(=O)c3ccc(-c4cn(CCC#N)nn4)cc3F)[C@@H]3CCCNC3)c12 [Example 881, 4-[1-(2-cyanoethyl)triazol-4-yl]-2-fluoro-N-(3-methylthieno[3,2-c]pyridin-4-yl)-N-[(3R)-3-piperidyl]benzamide]
150 nM | Cc1cccc2ccnc(N(C(=O)c3ccc(Nc4nccc(N(C)C5CCCC5)n4)cc3F)[C@@H]3CCCNC3)c12 [Example 948, 4-({4-[cyclopentyl(methyl)amino]pyrimidin-2-yl}amino)-2-fluoro-N-(8-methylisoquinolin-1-yl)-N-[(3R)-piperidin-3-yl]benzamide]
600 nM | O=C(c1ccc(-n2nnc3cccnc32)cc1F)N(c1nccc2sc(C3CC3)cc12)[C@@H]1CCCNC1 [Example 740, (R)-4-(3H-[1,2,3]triazolo[4,5-b]pyridin-3-yl)-N-(2-cyclopropylthieno[3,2-c]pyridin-4-yl)-2-fluoro-N-(piperidin-3-yl)benzamide]
1900 nM | NS(=O)(=O)c1cccc(-c2cc3c(N(C(=O)c4ccc(-n5nnc6cccnc65)cc4F)[C@@H]4CCCNC4)nccc3s2)c1 [Example 446, 2-fluoro-N-[(3R)-3-piperidyl]-N-[2-(3-sulfamoylphenyl)thieno[3,2-c]pyridin-4-yl]-4-(triazolo[4,5-b]pyridin-3-yl)benzamide]
130 nM | Cc1nnc(-c2ccc(C(=O)N(c3nccc4cc(F)cc(C)c34)[C@@H]3CCCNC3)cn2)s1 [Example 647, N-(6-fluoro-8-methyl-1-isoquinolyl)-6-(5-methyl-1,3,4-thiadiazol-2-yl)-N-[(3R)-3-piperidyl] pyridine-3-carboxamide]
230 nM | NC(=O)c1ccc(-c2cc3c(N(C(=O)c4ccc(-n5nnc6cccnc65)cc4F)[C@@H]4CCCNC4)nccc3s2)cc1C(F)(F)F [Example 573, 4-[4-[[2-fluoro-4-(triazolo [4,5-b]pyridin-3-yl)benzoyl]-[(3R)-3-piperidyl]amino]thieno [3,2-c]pyridin-2-yl]-2-(trifluoromethyl) benzamide]
370 nM | Cc1cccc2ccnc(N(C(=O)N3CCCC(c4ncc(-c5ccccc5)[nH]4)C3)[C@@H]3CCCNC3)c12 (stereo partly drawn) [Example 341, N-(8-methylisoquinolin-1-yl)-3-(5-phenyl-1H-imidazol-2-yl)-N—((R)-piperidin-3-yl)piperidine-1-carboxamide]
3600 nM | Cc1cc(F)cc2ccnc(N(C(=O)c3ccc(-c4nnc(O)s4)cc3F)[C@@H]3CCCNC3)c12 [Example 650, 2-fluoro-N-(6-fluoro-8-methyl-1-isoquinolyl)-4-(5-hydroxy-1,3,4-thiadiazol-2-yl)-N-[(3R)-3-piperidyl]benzamide]
> 6300 nM | C=C(C)c1ccnc(N(C(=O)c2ccc(-c3cn(C)nn3)cc2F)[C@@H]2CCCNC2)c1 [Example 887, 2-fluoro-N-(4-isopropenyl-2-pyridyl)-4-(1-methyltriazol-4-yl)-N-[(3R)-3-piperidyl]benzamide]
140 nM | COC/C=C/c1ccnc(Nc2ccc(C(=O)N(c3nccc4cccc(C)c34)[C@@H]3CCCNC3)c(F)c2)n1 [Example 749, (R,E)-2-fluoro-4-((4-(3-methoxyprop-1-en-1-yl)pyrimidin-2-yl)amino)-N-(8-methylisoquinolin-1-yl)-N-(piperidin-3-yl)benzamide]
220 nM | Cc1sc2ccnc(N(C(=O)c3ccc(-n4nnc5cccnc54)cc3F)[C@@H]3CCCNC3)c2c1C [Example 820, (R)-4-(3H-[1,2,3]triazolo[4,5-b]pyridin-3-yl)-N-(2,3-dimethylthieno[3,2-c]pyridin-4-yl)-2-fluoro-N-(piperidin-3-yl)benzamide]
650 nM | Cn1cc(-c2ccc(C(=O)N(c3nccc4sc(Cc5cccnc5)cc34)[C@@H]3CCCNC3)c(F)c2)nn1 [Example 488, 2-fluoro-4-(1-methyltriazol-4-yl)-N-[(3R)-3-piperidyl]-N-[2-(3-pyridylmethyl)thieno[3,2-c]pyridin-4-yl]benzamide]
1300 nM | O=C(c1ccc(Nc2ncccn2)cc1F)N(c1nccc2cc(Cl)ccc12)[C@@H]1CCCNC1 [Example 794, (R)—N-(6-chloroisoquinolin-1-yl)-2-fluoro-N-(piperidin-3-yl)-4-(pyrimidin-2-ylamino)benzamide]
200 nM | O=C(c1ccc(-n2nnc3cccnc32)cc1F)N(c1nccc2sc(-c3cccc(O)c3)cc12)[C@@H]1CCCNC1 [Example 381, 2-fluoro-N-[2-(3-hydroxyphenyl)thieno[3,2-c]pyridin-4-yl]-N-[(3R)-3-piperidyl]-4-(triazolo[4,5-b]pyridin-3-yl)benzamide]
580 nM | Cn1cc(-c2ccc(C(=O)N(c3nccc4cc(C#N)ccc34)[C@@H]3CCCNC3)c(F)c2)nn1 [Example 472, (R)—N-(6-cyanoisoquinolin-1-yl)-2-fluoro-4-(1-methyl-1H-1,2,3-triazol-4-yl)-N-(piperidin-3-yl)benzamide]
110 nM | Cc1cccc2ccnc(N(C(=O)c3ccc(Nc4nccc(C5CCOCC5)n4)cc3F)[C@@H]3CCCNC3)c12 [Example 663, (R)-2-fluoro-N-(8-methylisoquinolin-1-yl)-N-(piperidin-3-yl)-4-((4-(tetrahydro-2H-pyran-4-yl)pyrimidin-2-yl)amino)benzamide]
120 nM | Cc1nnc(-c2ccc(C(=O)N(c3nccc4cc(F)cc(C)c34)[C@@H]3CCCNC3)c(F)c2)s1 [Example 833, (R)-2-fluoro-N-(6-fluoro-8-methylisoquinolin-1-yl)-4-(5-methyl-1,3,4-thiadiazol-2-yl)-N-(piperidin-3-yl)benzamide]
97 nM | Cc1cccc2ccnc(N(C(=O)c3ccc(-c4nnc(C5CC5)o4)cc3)[C@@H]3CCCNC3)c12 [Example 789, (R)-4-(5-cyclopropyl-1,3,4-oxadiazol-2-yl)-N-(8-methylisoquinolin-1-yl)-N-(piperidin-3-yl)benzamide]
56 nM | COCCc1nnc(-c2ccc(C(=O)N(c3nccc4cc(F)cc(C)c34)[C@@H]3CCCNC3)c(F)c2)s1 [Example 852, 2-fluoro-N-(6-fluoro-8-methyl-1-isoquinolyl)-4-[5-(2-methoxyethyl)-1,3,4-thiadiazol-2-yl]-N-[(3R)-3-piperidyl]benzamide]
63 nM | Cc1cccc2ccnc(N(C(=O)c3ccc(Nc4nccc(N5CCS(=O)(=O)CC5)n4)cc3F)[C@@H]3CCCNC3)c12 [Example 935, (R)-4-((4-(1,1-dioxidothiomorpholino)pyrimidin-2-yl)amino)-2-fluoro-N-(8-methylisoquinolin-1-yl)-N-(piperidin-3-yl)benzamide]
200 nM | Cc1nnc(-c2ccc(C(=O)N(c3nccc4c(Cl)cn(C)c34)[C@@H]3CCCNC3)c(F)c2)s1 [Example 664, (R)—N-(3-chloro-1-methyl-1H-pyrrolo[2,3-c]pyridin-7-yl)-2-fluoro-4-(5-methyl-1,3,4-thiadiazol-2-yl)-N-(piperidin-3-yl)benzamide]
940 nM | Cc1cccc2ccnc(N(C(=O)c3cccc(C#CCCC(=O)N4CCC(O)C4)c3)[C@@H]3CCCNC3)c12 (stereo partly drawn) [Example 518, 3-(5-(3-hydroxypyrrolidin-1-yl)-5-oxopent-1-yn-1-yl)-N-(8-methylisoquinolin-1-yl)-N—((R)-piperidin-3-yl)benzamide]
16 nM | Cc1cc(F)cc2ccnc(N(C(=O)c3ccc(-c4cn(C)nn4)cc3)[C@@H]3CCCNC3)c12 [Example 614, (R)—N-(6-fluoro-8-methylisoquinolin-1-yl)-4-(1-methyl-1H-1,2,3-triazol-4-yl)-N-(piperidin-3-yl)benzamide]
650 nM | Cn1cc(/C=C/c2ccnc(N(C(=O)c3ccc(-n4nnc5cccnc54)cc3F)[C@@H]3CCCNC3)c2)cn1 [Example 430, 2-fluoro-N-[4-[(E)-2-(1-methylpyrazol-4-yl)vinyl]-2-pyridyl]-N-[(3R)-3-piperidyl]-4-(triazolo[4,5-b]pyridin-3-yl)benzamide]
200 nM | Nc1cc(-c2cc3c(N(C(=O)c4ccc(-n5nnc6cccnc65)cc4F)[C@@H]4CCCNC4)nccc3s2)ccn1 [Example 383, N-[2-(2-amino-4-pyridyl)thieno[3,2-c]pyridin-4-yl]-2-fluoro-N-[(3R)-3-piperidyl]-4-(triazolo[4,5-b]pyridin-3-yl)benzamide]
